# Data published in patent publication US20210244773A1, “DENTAL PULP STEM CELLS AND USES THEREOF” (priority 2018, published 2021).
# Several values for one entry are separate records, joined by “and”; a condition that tells them apart may be missing. Identical values can stand only once.
# Tests used:
# Format in all cases: cell-based, human
# [1] = test system: DPSC; experiment: DPSC neuronal differentiation with TNF-alpha, lipoxin A4 or resolvin D1, flow cytometry (Example 3); settings: for TNF-alpha-induced decrease in β III-tubulin expression: FIG. 6, both 10 and 100 nM, p<0.05; for neuronal differentiation of DPSC without TNF-alpha: added alone at either dose (10 or 100 nM), data not shown
# Description: DPSC were isolated from the teeth of 7 healthy donors extracted during routine dental care. Samples were selected from our tooth biorepository based on the following donor characteristics: absence of medical comorbidities, no active medication use (aside from vitamin supplements), and absence of periodontal disease or tooth decay. The extracted pulp were plated and then cultured in basal medium, DMEM/F12+15% FBS supplemented with 100 U/mL non-essential amino acids (Gibco Life Technologies), 100 U/mL penicillin and streptomycin, and glutamine (Gibco Life Technologies). Outgrowing fibroblast-like cells appeared after 3-4 days and at that point the pulp was replated. The outgrowing cells were passaged after reaching 80% confluence and passage 4 was used for all experiments. Cells were seeded in duplicate with 2×10^4 cells/well. Neuronal differentiation was induced by replacing DMEM/F12+15% FBS culture media with neuronal differentiation media (NeuroCult NS-A Differentiation Kit-Human, StemCell Technologies Inc., Tukwila, Wash., USA) 48 hours after seeding. Cells were cultured under neuronal induction conditions for up to 21 days with culture media changed twice a week.
# Varying concentrations of TNF-alpha (1, 10, 25, and 100 ng/mL, PeproTech, Rocky Hill, N.J., USA), lipoxin A4 (10 and 100 nM, Cayman Chemical, Ann Arbor, Mich., […], Cayman Chemical, Ann Arbor, Mich., USA) were added to the culture of both differentiated and non-differentiated cells starting 48 hours after seeding. In some experiments cells were treated with both TNF-alpha and lipoxin A4 or resolvin D1.
# Expression of stem cell and neuronal cell markers was determined by flow cytometry. […] Cells were incubated for 1 hour at room temperature with the following primary antibodies against stem cell markers: rabbit anti-CD44 (Abcam, 1:30) and rabbit anti-OCT4 (Abcam, 1:200) and neuronal markers: rabbit anti-nestin (Abcam, 1:100), rabbit anti-doublecortin (Abcam, 1:50), mouse anti-β III-tubulin (Abcam, 1:100), and rabbit anti-NeuN (Abcam, 1:100). Fluorescence was achieved by incubating with secondary antibodies (Life Tech, Carlsbad, Calif., goat anti-rabbit IgG or goat anti-mouse IgG, dilution 1:500) for 1 hour at room temperature in a dark room. Cells were then subjected to flow cytometry and the percentage of cells expressing each marker was calculated.
# Each analysis was performed in duplicate using cells from all donors. Median and interquartile ranges were calculated for each condition. Mann-Whitney tests were used for all statistical analyses; p<0.05 was considered significant.
# [2] = test system: dental pulp stem cells; experiment: MTT metabolic activity assay of dental pulp stem cells
# Description: The metabolic activity of cells was determined by 3-(4,5-dimethylthiazol-2-yl)-2,5-diphenyltetrazolium bromide (MTT) assay at various time points to assess TNF-α toxicity on dental pulp stem cells. Cells were incubated for 4 hours in 5 mg/mL thiazolyl blue tetrazolium bromide (Sigma Aldrich, St. Louis, Mo., USA), the precipitate was suspended with 2-propanol (Sigma Aldrich, St. Louis, Mo., USA), and absorbance was determined in triplicate.
# [3] = test system: DPSC expression of IL-6, IL-8, IL-1β; experiment: Inflammatory cytokine gene expression in DPSC by real-time PCR; settings: all doses (1, 10, 25, 100 ng/ml), 24 hours
# Description: Induction of inflammatory cytokine gene expression was determined by real-time PCR to optimize TNF-α treatment conditions. Total RNA was extracted from cells using Trizol (Life Technologies). 10 μL total RNA was reverse transcribed to cDNA using iScript cDNA Synthesis Kit (Bio-Rad, Hercules, Calif., USA). 1 μL cDNA used as template for real-time PCR amplification reactions using the iQ SYBR Green Supermix (Bio-Rad) in combination with […] of each gene-specific primer, according to manufacturer's instructions. Glyceraldehyde 3-phosphate dehydrogenase (GAPDH) was used as endogenous control. PCR reactions were conducted in duplicate using the following conditions: initial denaturation for 3 min at 95° C. followed by 40 cycles of 15 sec denaturation at 95° C. and 60 sec annealing at 60° C. Relative quantification was used for statistical analyses. The following primers were used: […]
# [4] = 25 ng/ml TNF-alpha, 21 days of differentiation, versus absence of TNF-alpha
Molecule,β III-tubulin expression (percent of cells) ([1]; 25 ng/ml TNF-alpha + 10 nM lipoxin A4) [%],"increase in β III-tubulin expression versus TNF-alpha alone ([1]; 25 ng/ml TNF-alpha + 10 nM lipoxin A4, p=0.02) [%]","β III-tubulin expression versus TNF-alpha alone ([1]; 25 ng/ml TNF-alpha + lipoxin A4 100 nM, p=0.03)",TNF-alpha-induced decrease in β III-tubulin expression [1],neuronal differentiation of DPSC without TNF-alpha [1],"increase in β III-tubulin expression versus TNF-alpha alone ([1]; 25 ng/ml TNF-alpha + 100 nM resolvin D1, p=0.02) [%]",β III-tubulin expression (percent of cells) ([1]; 25 ng/ml TNF-alpha + 100 ng/ml resolvin D1) [%],"β III-tubulin expression versus TNF-alpha alone ([1]; 25 ng/ml TNF-alpha + resolvin D1 10 nM, p=0.09)",toxicity to DPSC (succinic dehydrogenase metabolic activity) ([2]; TNF-alpha treatment),"metabolic activity (MTT) ([2]; neural induction with 25 ng/ml or 100 ng/ml TNF-alpha, 10 days, versus absence of TNF-alpha)","cells expressing the early marker doublecortin ([1]; 25 ng/ml TNF-alpha, 21 days of differentiation)","expression of early neuronal marker nestin [1, 4]","expression of stem cell marker CD44 [1, 4]","expression of stem cell marker OCT 3/4 [1, 4]","decrease in differentiated cells expressing β III-tubulin ([1]; 25 ng/ml TNF-alpha, neuronal differentiation, decrease)","β-III tubulin expression ([1]; FIG. 6, presence of TNF-alpha)",β III-tubulin expression (percent of cells) ([1]; neural induction with 25 ng/ml TNF-alpha alone) [%],DPSC expression of IL-6 ([3]; FIG. 4A),DPSC expression of IL-8 ([3]; FIG. 4B),DPSC expression of IL-1β ([3]; FIG. 4C)
CCCCC[C@H](O)/C=C/C=C\C=C\C=C\[C@@H](O)[C@@H](O)CCCC(=O)O [lipoxin A4],59,84,Results were similar,mitigated,no reduction or improvement,,,,,,,,,,,,,,,
CC/C=C\C[C@H](O)/C=C/C=C\C=C\C=C\[C@@H](O)[C@@H](O)C/C=C\CCC(=O)O [resolvin D1],,,,mitigated,no reduction or improvement,78,57,approached significance,,,,,,,,,,,,
TNF-alpha,,,,,,,,,not toxic,significantly greater metabolic activity,non-significant increase,no difference,no difference,no difference,70% and 59%,significant decrease,32,significant increases,significant increases,significant increases
